Experimental data reported in patent US20250025417A1, “ORAL ABIRATERONE FORMULATIONS” (PROPELLA THERAPEUTICS, INC., priority 2021, published 2025).

Experiments:
[1] = Solubility of abiraterone decanoate in lipid-based vehicles at 25° C. (HPLC); assay type: physicochemical; details: for Solubility (mg/g) at 25° C.: Day 13 results; for Solb (mg/g) at 25° C.: average of day 2 and day 7
Procedure: In this example, solubility of abiraterone decanoate in the following four vehicles were tested. Each vehicle has a distinctive base, namely, medium chain trigylceride (MCT)/polyoxylglyceride, long chain (LC) monodiglyceride, and two propylene glycol (PG) monoesters, caprylic and lauryl. • Vehicle 1: MCT/Polyoxylglyceride based: 20% Kolliphor RH40/14% Plurol Oleique CC 497/33% Labrafil 1944 CS/33% Labrafac Lipophile WL 1349 • Vehicle 2: PG Monoester based: 20% Kolliphor RH 40/14% Plurol Oleique CC 497/66% Lauroglycol 90 • Vehicle 3: PG Monoester based: 20% Kolliphor RH40/14% Plurol Oleique CC 497/66% Capmul PG-8 • Vehicle 4: LC Monodiglyceride based: 20% Kolliphor RH40/14% Plurol Oleique CC 497/66% Maisine CC
Solubilities of abiraterone decanoate in different vehicles were tested following the procedure below: • Prepare 5 g of each vehicle by weight • In a 4-mL vial, weigh about 350 mg drug and then add 2 mL of vehicle • Sonicate and vortex all samples, then place on a rotator at 25° C. • At the end of the day check the samples to see if the drug completely dissolved. If so, use wax paper to transfer additional drug, record the additional amount added. • After 2-3 days, remove about 0.5 mL from each sample and filter using a microcentrifuge. […] Results were obtained for samples after 2 days and after 7 days.
The vehicles being tested have the following compositions: • Vehicle 1 (see Example 2): 20% Kolliphor RH40/14% Plurol Oleique CC 497/33% Labrafil 1944 CS/33% Labrafac Lipophile WL 1349, used as a control. • Vehicle 5: 20% Kolliphor RH40/14% Plurol Oleique CC 497/33% Maisine CC/33% Labrafac Lipophile WL 1349* • Vehicle 6: 20% Kolliphor RH40/14% Plurol Oleique CC 497/16% Labrafil 1944 CS/30% Maisine CC/20% Labrafac Lipophile WL 1349 • Vehicle 7: 20% Kolliphor RH40/14% Plurol Oleique CC 497/16% Labrafil 1944 CS/30% Capmul PG-8/20% Labrafac Lipophile WL 1349 • Vehicle 8: 20% Kolliphor RH40/14% Plurol Oleique CC 497/16% Labrafil 1944 CS/30% Capmul PG-12/20% Labrafac Lipophile WL 1349 • Vehicle 9: 20% Kolliphor RH40/14% Plurol Oleique CC 497/16% Labrafil 1944 CS/30% Labrafil M 2130 CS/20% Labrafac Lipophile WL 1349
The procedures for preparing samples and solubility testing are similar to those described in Example 2.

[2] = Forms A, B, and C

- solubility in lipid based vehicles (in words) ([1]; Examples 2 and 3): good solubilities
- Solubility (mg/g) at 25° C. ([1]; Vehicle 1 (control)): 101.1 mg/g
- Solb (mg/g) at 25° C. ([1]; Vehicle 1: 20% Kolliphor RH40/14% Plurol Oleique CC 497/33% Labrafil 1944 CS/33% Labrafac Lipophile WL 1349): 88.5 mg/g
- Solb (mg/g) at 25° C. ([1]; Vehicle 2: 20% Kolliphor RH 40/14% Plurol Oleique CC 497/66% Lauroglycol 90): 143.9 mg/g
- Solb (mg/g) at 25° C. ([1]; Vehicle 3: 20% Kolliphor RH40/14% Plurol Oleique CC 497/66% Capmul PG-8): 149.2 mg/g
- Solb (mg/g) at 25° C. ([1]; Vehicle 4: 20% Kolliphor RH40/14% Plurol Oleique CC 497/66% Maisine CC): 110.2 mg/g
- Solubility (mg/g) at 25° C. ([1]; Vehicle 5: 20% Kolliphor RH40/14% Plurol Oleique CC 497/33% Maisine CC/33% Labrafac Lipophile WL 1349): 111.5 mg/g
- Solubility (mg/g) at 25° C. ([1]; Vehicle 6: 20% Kolliphor RH40/14% Plurol Oleique CC 497/16% Labrafil 1944 CS/30% Maisine CC/20% Labrafac Lipophile WL 1349): 114.3 mg/g
- Solubility (mg/g) at 25° C. ([1]; Vehicle 7: 20% Kolliphor RH40/14% Plurol Oleique CC 497/16% Labrafil 1944 CS/30% Capmul PG-8/20% Labrafac Lipophile WL 1349): 141.2 mg/g
- Solubility (mg/g) at 25° C. ([1]; Vehicle 8: 20% Kolliphor RH40/14% Plurol Oleique CC 497/16% Labrafil 1944 CS/30% Capmul PG-12/20% Labrafac Lipophile WL 1349): 132.9 mg/g
- DVS Max H2O uptake (wt %) [2]: N/A - non-hygroscopic
Compound: CCCCCCCCCC(=O)O[C@H]1CC[C@@]2(C)C(=CC[C@@H]3[C@@H]2CC[C@]2(C)C(c4cccnc4)=CC[C@@H]32)C1 [abiraterone decanoate]
